Laboratory results: paper PMC9000469 (Molecules, 2022)
“And” between values parts separate entries of the source, which are not always exact repeats. Equal values may be shown once. “Also recorded” adds a separate entry of the source. Where a name gives a salt, the structure may show the parent alone. Read-outs that look alike come from different tables or passages of the source.

Legend:
[1] = Permeability across the PermeaPad 96-well plate biomimetic barrier; format: in vitro ADME; conditions: for Effect of medium pH (6.8 versus 7.4) on permeability across the PermeaPad barrier: Student t-test, p > 0.05; for Permeability across the PermeaPad barrier by passive diffusion (in words): pH 6.8 and 7.4; for Papp on the Permeapad membrane: pH not stated in the sentence (equals the pH 7.4 value of Figure 4)
Description: The […]® 96-well plate was purchased from InnoME GmbH ([…], Germany). The plate consists of a bottom plate, a screen plate with a lipid barrier and a lid. The surface area for permeation studying is 0.15 cm^2. The permeability tests across a biomimetic barrier of drug substances were performed from the bottom to the top compartment. The compounds were dissolved in PBS with pH 6.8 or 7.4. […] The permeation tests for all compounds were performed at room temperature (25 °C). HPLC methods were used to determine the concentration of the compound transported. The apparent permeability coefficient (Papp) was calculated according to the protocol described by di Cagno et al..

[2] = set-up: method as in PMID 25840123; conditions: concentration 5 mM; cited from earlier work
[3] = Physicochemical properties of compounds (pKa, logP); conditions: internal data
Source text: PA was obtained from Ethifarm (Ethifarm, Poznan, Poland). Reference substances CAF and NF were obtained from Sigma Aldrich (Merck Group, Darmstadt, Germany).

Caco-2 monolayer [4] = conditions: previously published results, cited from earlier work
Caco-2 cells = assay: MTT cytotoxicity assay in Caco-2 cells; conditions: 0.0–2.0 mg/mL, 2 h exposure
Description: After leaving them overnight, different concentrations of analyzed substances in HBSS pH 7.4 were added.. Cells were exposed to the substances for 2 h (time of transport across monolayer) in an incubator under optimal culture conditions. After incubation, the solution was removed and the mixture of DMEM cell culture medium and MTT (5 mg/mL) was added. Cells were incubated for 2 h, and then the resulting formazan crystals were dissolved in DMSO. The absorbance was measured using an Elx-800 absorbance microplate reader (Biotek, Winooski, VT, USA) at wavelength 540 nm.

Caco-2 monolayer [5] = conditions: for Papp across Caco-2 monolayer: basolateral to apical, 2 h, pH 7.4, 37 °C, mean ± SD, n = 3
Description: For the transport study, the Caco-2 cells were seeded at 4 × 10^5 cells/well on the permeable cell culture inserts with a 0.4 µm pore diameter (Millipore-Merck Group, Darmstadt, Germany) placed in 6-well plates. The cells were cultured for 22 days in the incubator under optimal culture conditions (37 °C, 5% CO2, and 95% air) to their spontaneity differentiating. The integrity of the monolayer was tested by measuring the Trans Epithelial Electrical Resistance (TEER) every 48 h using a Millicel ERS-2 Voltohmmeter (Millipore-Merck Group, Darmstadt, Germany). The cells’ monolayer with an average TEER value > 600 Ohm × cm^2 was considered to be suitable for permeability testing.
The permeability tests across the Caco-2 monolayer of substances were performed from basolateral to the apical compartment (B–A). Plates with cell culture inserts were incubated at 37 °C with shaking at 100 rpm for 2 h. Drug substances were dissolved in the transport buffer solution (HBSS with 25 mM HEPES, pH 7.4) and placed into a donor compartment. The solution volume in the apical and basolateral compartments was maintained at 2 mL and 4 mL, respectively. The samples (150 µL) from the acceptor compartment were taken at 15 min intervals and were replaced with fresh reheated (37 °C) buffer. The HPLC analysis described below was used to determine the concentration of the compound transported. Transport kinetics and the apparent permeability coefficient (Papp) were calculated according to the protocols described by Tavelin et al. and Hubatsch et al..
Concentrations of all compounds transported were determined by the reverse phase HPLC with UV-VIS detection. HPLC analysis was conducted on Waters UPLC Acquity H-class apparatus with Empower 3.0 software (Waters Corporation, Milford, MA, USA). […] The isocratic flow rate was set as 0.6 mL/min and the detection wavelength on λ = 215 nm.

[6] = cited from earlier work
[7] = cited from earlier work; remark: listed apart in the source
PEPT1 = system: PEPT1; set-up: method as in PMID 19519280; conditions: cited from earlier work
PEPT2 = system: PEPT2; set-up: method as in PMID 19519280; conditions: cited from earlier work
[8] = conditions of high temperatures and relative humidity; cited from earlier work

Cn1c(=O)c2c(ncn2C)n(C)c1=O [CAF, caffeine]
Effect of medium pH (6.8 versus 7.4) on permeability across the PermeaPad barrier [1]: no significant difference
Permeability across the PermeaPad barrier by passive diffusion (in words) [1]: highest transport
Permeability across the PermeaPad barrier by passive diffusion (in words) ([1]; listed as Caffeine): high permeable
Papp in the PermeaPad barrier [2]: 24 ×10⁻⁶ cm/s

CCN(CC)CCOC(=O)C(Cc1cccc2ccccc12)CC1CCCO1 (stereo not shown) [NF, Naftidrofuryl oxalate]
Effect of medium pH (6.8 versus 7.4) on permeability across the PermeaPad barrier [1]: slightly lower permeability of NF in medium at pH 7.4
Papp at 4 h ([1]; not told, both 0.2 mg/mL and 0.125 mg/mL, read-out: Papp through the PermeaPad membrane, bound stated for both concentrations): > 10 ×10⁻⁶ cm/s
Permeability across the PermeaPad barrier by passive diffusion (in words) [1]: relatively high and high
pKa [3]: 4.1
Papp through the Caco-2 monolayer (Caco-2 monolayer [4]; 0.125 mg/mL): 84.1 ×10⁻⁶ cm/s
Papp through the Caco-2 monolayer (Caco-2 monolayer [4]; 0.2 mg/mL): 78.8 ×10⁻⁶ cm/s

CCC[C@H](N[C@@H](C)C(=O)N1[C@H](C(=O)O)C[C@@H]2CCCC[C@@H]21)C(=O)OCC.N=C(N)NCCC[C@H](N)C(=O)O [PA, Perindopril arginine]
Cytotoxicity to the Caco-2 cell line (MTT) (Caco-2 cells): not cytotoxic; also recorded: No effect
Compound Permeability (Caco-2 monolayer) (Caco-2 monolayer [5]; 1.0 mg/mL): low (when Papp is lower than 1 × 10^−6 cm/s, the substance is considered poorly permeable)
Papp across Caco-2 monolayer (Caco-2 monolayer [5]; 1.0 mg/mL): 0.72 ± 0.04 × 10^−6 cm/s
Papp across Caco-2 monolayer (Caco-2 monolayer [5]; 2.0 mg/mL): 1.94 ± 0.96 × 10^−6 cm/s
Papp on the Permeapad membrane ([1]; 1.0 mg/mL): 35.7 ×10⁻⁶ cm/s
Papp on the Permeapad membrane ([1]; 2.0 mg/mL): 43.9 ×10⁻⁶ cm/s
Effect of medium pH (6.8 versus 7.4) on permeability across the PermeaPad barrier [1]: did not affect; also recorded: no significant differences
Permeability across the PermeaPad barrier by passive diffusion (in words) [1]: lowest permeability; also recorded: relatively low permeability
pKa (strongest acid) [3]: 3.17
pKa (strongest base) [3]: 5.67
logP ([3]; two values printed per compound without explanation): 0.65 and 0.56
Time to peak plasma concentrations (absorption completed) ([6]; after oral administration): approximately 1 h
Absolute oral bioavailability [6]: 75%
Permeability (BCS characterisation) [7]: low permeability
Permeability (characterisation) [7]: low permeability
Interaction with the intestinal peptide transporter PEPT1 (PEPT1): relatively poor interaction
Interaction with the intestinal peptide transporter PEPT2 (PEPT2): relatively poor interaction
Shelf life and stability of the arginine salt compared with the erbumine salt [8]: greater shelf life and stability

CCC[C@H](N[C@@H](C)C(=O)N1[C@H](C(=O)O)C[C@@H]2CCCC[C@@H]21)C(=O)O [Perindoprilat, perindoprilat]
Average bioavailability of the active metabolite ([6]; after oral PA): about 25%
Mean half-life [6]: 5 to 11 h

CCC[C@H](N[C@@H](C)C(=O)N1[C@H](C(=O)O)C[C@@H]2CCCC[C@@H]21)C(=O)OCC [perindopril]
Fraction metabolized into perindoprilat during the first pass of the liver ([6]; oral administration, no ref printed with the sentence): 30–50%
